Laboratory results: patent US20110098325A1, “PYRIDINE BENZAMIDES AND PYRAZINE BENZAMIDES USED AS PKD INHIBITORS” (CANCER RESEARCH TECHNOLOGY LIMITED, priority 2006, published 2011)
pIC50: −log10 of the molar value.

Molecular target: T1, Murine PKD1 kinase domain (Mus musculus, UniProt Q62101)
T1 construct: hexahistidine (pFastBac HTb leader) (N); made in house; host or cells: Sf9 insect cells, baculovirus (Bac-to-Bac HT, pFastBac HTb)
T1 sequence (Q62101 with tags, fused parts or gaps R683W): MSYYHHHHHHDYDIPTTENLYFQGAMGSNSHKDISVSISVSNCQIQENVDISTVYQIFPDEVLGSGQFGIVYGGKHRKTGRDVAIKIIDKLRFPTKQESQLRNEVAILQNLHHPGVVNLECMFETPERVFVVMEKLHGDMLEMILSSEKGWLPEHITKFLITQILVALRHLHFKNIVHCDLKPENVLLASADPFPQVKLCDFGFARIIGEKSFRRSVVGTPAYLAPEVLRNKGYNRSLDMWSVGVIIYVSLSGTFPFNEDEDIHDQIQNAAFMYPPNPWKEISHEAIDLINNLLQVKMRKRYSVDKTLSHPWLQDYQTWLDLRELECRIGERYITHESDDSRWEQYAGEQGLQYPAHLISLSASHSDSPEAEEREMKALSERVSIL
Experiment: PKD1 (Murine Kinase Domain) Enzyme Activity Assay (IMAP fluorescence polarisation)
Assay type: biochemical
Conditions: 10 μM ATP, 60 minutes, room temperature
Excerpt: The DNA sequence corresponding to murine PKD1 (see FIG. 1) was inserted into pFastBAc Htb (Invitrogen, USA) at BamH1 and EcoR1 sites using standard molecular biology techniques.
The PKD1 described above was expressed as a hexahistidine tagged protein construct using a commercially available baculoviral expression system that induces protein production in insect cell culture (Bac-to-Bac® HT Baculovirus Expression System, Invitrogen). Protein was typically expressed by inoculating 1 L of sf9 cells with a genetically modified baculovirus containing the gene for the kinase domain of PKD1. Sf9 cells were obtained from ICR Ltd.
Purification of PKD1 was achieved by standard chromatographic procedures. Capture from crude centrifuged lysed cell supernatant was achieved using metal affinity chromatography (GE Healthcare Life Sciences, HiTrap Chelating chromatography column), and fractions showing PKD1 (as assessed by gel electrophoresis and western blot) were further purified by a single polish purification step performed using a mono Q anion exchange chromatography system (GE Healthcare Life Sciences, HiTrap HP Q column). […] This protocol describes the method for screening compounds as inhibitors of Protein Kinase D activity in a 384 well microplate format fluorescence polarisation IMAP assay performed using the Biomek FX.
Kinase Enzyme: Murine PKD1 kinase domain at ˜100 μg/mL, was purified from baculovirus (as described above), obtained from aliquots stored at −70° C. PKD was prepared with a final concentration of 0.1 μg/mL by diluting 1:300 in Reaction Buffer (30 μL per 9 mL-5 mL per plate with an additional 4 mL dead volume) and vortexing prior to use. It was necessary to check this concentration regularly in case of enzyme degradation.
(also known as MAPKAP K2 substrate) was obtained from Molecular Devices (Product code R7127). It was used at 300 nM by diluting 20 μM stock 1:66 in Kinase/Reaction Buffer (135 μL per 9 mL; 75 μL per 5 mL Reaction Buffer for blank wells requiring <1 mL per place with an additional 4 mL dead volume).
A 1 mM ATP stock in Reaction Buffer was prepared from a 10 mM stock in 20 mM NaOH and stored as aliquots at −70° C. It was used at 40 μM by diluting 1 mM stock 1:25 in Reaction Buffer (240 μL per 6 mL-2 mL per plate with an additional 4 mL dead volume) and vortexing prior to use.
IMAP Reagents: IMAP Binding Reagent (product code R7207) and Binding Buffer (product code R7208) were obtained from Molecular Devices and stored at +4° C. The beads were gently re-suspended before diluting by 1:400 in buffer (Binding Buffer is supplied as a 5× stock and so was diluted with water prior to use) and then vortexing before addition to wells. 16 mL water with 4 mL Binding Buffer and 50 μL Binding Reagent were used per plate (17 mL per plate with an additional 3 mL dead volume).
13 μL Substrate in Reaction Buffer was added to ‘blank’ wells to give 200 nM reaction concentration. […] 2 μL 10% DMSO/water was added to ‘blank’ and ‘control’ wells. 5 μL ATP in Reaction Buffer was added to all wells to give 10 μM reaction concentration. The reaction mixture was then incubated at room temperature for 60 minutes. The incubation period was followed by the addition of 40 μL IMAP Binding Reagent in Binding Buffer to all wells. The reaction was then further incubated at room temperature for […].
Percentage inhibition was calculated based on activity of the test sample minus the average values in the blank wells relative to the average values measured in control wells minus the average values in the blank wells.
IC50 values were calculated from 10 point dose sigmoid ‘dose-response’ curves using Xlfit software (IDBS inc, USA). Data were fitted to a 4 parameter logistic model/sigmoidal dose response:
where: A=fit minimum (locked to 0); B=fit maximum (locked to 100); C=fit midpoint (pre-fit to 1); D=slope at linear portion of curve, hillslope (pre-fit to 0.1)

Question: How did the pIC50 turn out when `COc1cc(-c2nc(-c3cccc(C(=O)NCCN(C)C)c3)cnc2N)ccn1` [X-024, 3-[5-Amino-6-(2-methoxy-pyridin-4-yl)-pyrazin-2-yl]-N-(2-dimethylamino-ethyl)-benzamide] was run?
Answer: > 6.00

Question: With `COc1ccc2cc(-c3nc(-c4cccc(C(=O)NCCN(C)C)c4)cnc3N)ccc2c1` [X-025, 3-[5-Amino-6-(6-methoxy-naphthalen-2-yl)-pyrazin-2-yl]-N-(2-dimethylamino-ethyl)-benzamide] as the molecule, how does the pIC50 read?
Answer: > 6.00

Question: `COc1cccc(-c2nc(-c3cccc(C(=O)NCCN(C)C)c3)cnc2N)c1` [X-026, 3-[5-Amino-6-(3-methoxy-phenyl)-pyrazin-2-yl]-N-(2-dimethylamino-ethyl)-benzamide] was tested. Which pIC50 did it give?
Answer: > 6.00

Question: `CCN(CC)CCNC(=O)c1cccc(-c2cnc(N)c(-c3cccc(OC)c3)n2)c1` [X-027, 3-[5-Amino-6-(3-methoxy-phenyl)-pyrazin-2-yl]-N-(2-diethylamino-ethyl)-benzamide] was tested. Which pIC50 did it give?
Answer: > 6.00

Question: How did the pIC50 turn out when `COc1cc(-c2cc(-c3cccc(C(N)=O)c3)cnc2N)ccc1O` [Y-001, 3-[6-Amino-5-(4-hydroxy-3-methoxy-phenyl)-pyridin-3-yl]-benzamide] was run?
Answer: > 6.00

Question: `COc1ccccc1-c1cc(-c2cccc(C(N)=O)c2)cnc1N` [Y-002, 3-[6-Amino-5-(2-methoxy-phenyl)-pyridin-3-yl] benzamide] was tested. Which pIC50 did it give?
Answer: 5.00 to 6.00

Question: How did the pIC50 turn out when `COc1ccccc1-c1cc(-c2cccc(C(=O)N3CCN(C)CC3)c2)cnc1N` [Y-003, {3-[6-Amino-5-(2-methoxy-phenyl)-pyridin-3-yl]-phenyl}-(4-methyl-piperazin-1-yl)-methanone] was run?
Answer: 5.00 to 6.00

Question: How did the pIC50 turn out when `COc1cc(-c2cc(-c3cccc(C(=O)N4CCN(C)CC4)c3)cnc2N)ccc1O` [Y-004, {3-[6-Amino-5-(4-hydroxy-3-methoxy-phenyl)-pyridin-3-yl]-phenyl}-(4-methyl-piperazin-1-yl)-methanone] was run?
Answer: 5.00 to 6.00

Question: `COc1cc(-c2cc(-c3cccc(C(=O)NCCN(C)C)c3)cnc2N)ccn1` [Y-005, 3-(2-Amino-2′-methoxy-[3,4′]bipyridinyl-5-yl)-N-(2-dimethylamino-ethyl)-benzamide] was tested. Which pIC50 did it give?
Answer: > 6.00

Question: `CN(C)CCNC(=O)c1cccc(-c2cnc(N)c(-c3ccc(Cl)nc3)c2)c1` [Y-006, 3-(2-Amino-6′-chloro-[3,3′]bipyridinyl-5-yl)-N-(2-dimethylamino-ethyl)-benzamide] was tested. Which pIC50 did it give?
Answer: 5.00 to 6.00

Question: With `CN(C)CCNC(=O)c1cccc(-c2cnc(N)c(-c3ccc(O)nc3)c2)c1` [Y-007, 3-(2-Amino-6′-hydroxy-[3,3′]bipyridinyl-5-yl)-N-(2-dimethylamino-ethyl)-benzamide] as the molecule, how does the pIC50 read?
Answer: > 6.00

Question: With `COc1ccc(-c2cc(-c3cccc(C(=O)NCCN(C)C)c3)cnc2N)cn1` [Y-008, 3-(2-Amino-6′-methoxy-[3,3′]bipyridinyl-5-yl)-N-(2-dimethylamino-ethyl)-benzamide] as the molecule, how does the pIC50 read?
Answer: 5.00 to 6.00

Question: `CN(C)CCNC(=O)c1cccc(-c2cnc(N)c(-c3ccc4c(c3)OCO4)c2)c1` [Y-010, 3-(6-Amino-5-benzo[1,3]dioxol-5-yl-pyridin-3-yl)-N-(2-dimethylamino-ethyl)-benzamide] was tested. Which pIC50 did it give?
Answer: > 6.00

Question: With `CN(C)CCNC(=O)c1cccc(-c2cnc(N)c(-c3cc4ccccc4s3)c2)c1` [Y-011, 3-(6-Amino-5-benzo[b]thiophen-2-yl-pyridin-3-yl)-N-(2-dimethylamino-ethyl)-benzamide] as the molecule, how does the pIC50 read?
Answer: > 6.00

Question: With `CN(C)CCNC(=O)c1cccc(-c2cnc(N)c(-c3cc4ccccc4o3)c2)c1` [Y-012, 3-(6-Amino-5-benzofuran-2-yl-pyridin-3-yl)-N-(2-dimethylamino-ethyl)-benzamide] as the molecule, how does the pIC50 read?
Answer: > 6.00

Question: With `CN(C)CCNC(=O)c1cccc(-c2cnc(N)c(-c3cccc(-c4ccccc4)c3)c2)c1` [Y-013, 3-(6-Amino-5-biphenyl-3-yl-pyridin-3-yl)-N-(2-dimethylamino-ethyl)-benzamide] as the molecule, how does the pIC50 read?
Answer: > 6.00

Question: With `CN(C)CCNC(=O)c1cccc(-c2cnc(N)c(-c3ccc(-c4ccccc4)cc3)c2)c1` [Y-014, 3-(6-Amino-5-biphenyl-4-yl-pyridin-3-yl)-N-(2-dimethylamino-ethyl)-benzamide] as the molecule, how does the pIC50 read?
Answer: > 6.00
